Values after ≈ are worked out from the molar mass of the structure shown. Values joined by “and” are separate entries in the source; they are usually repeats but may differ in a detail not shown here. Equal values may be shown once. Read-outs that look alike come from different tables or passages of the source.
How the values were obtained:
Solubility assay = type: physicochemical; conditions: PBS buffer, aqueous buffer, kinetic from dmso stock, PBS pH 7.4, room temperature
Experimental: Next, 5 μL of this reference stock plate was mixed with 70 μL of 1-propanol and 75 μL of PBS (pH 7.4) to make the reference plate, and the UV spectrum (250–500 nm) of the reference plate was read. Then, 6 μL of 10 mM test compound stock was added to 600 μL of PBS, pH 7.4, in a 96-well storage plate and mixed. The storage plate was sealed and incubated at room temperature for 18 h. The suspension was then filtered through a 96-well filter plate (pION Inc.). Next, 75 μL of filtrate was mixed with 75 μL of 1-propanol to make the sample plate, and the UV spectrum of the sample plate was read. Calculations were done using μSOL Evolution software based on the area under the curve (AUC) of the UV spectrum of the sample plate and the reference plate. All compounds were tested in triplicate.

PfHT = PfHT (Plasmodium falciparum, UniProt Q7KWJ5); assay: Uptake of [3H] D-glucose by L. mexicana Δlmxgt1-3 null mutants expressing PfHT; type: cell-based; set-up: expressed in transfected cells; host or cells: Leishmania mexicana promastigotes, Δlmxgt1-3 hexose transporter null mutant; conditions: for Ki: linear regression; for Vmax: glucose uptake by PfHT; for mode of inhibition of glucose uptake through PfHT: substrate saturation curves, one-way ANOVA of Vmax and Km; for SIglucose GLUT1/PfHT (Specificity Index, IC50 for GLUT1/IC50 for PfHT): uptake of 100 μM [3H] D-glucose
Experimental: (§1) Glucose uptake assays employed logarithmic phase L. mexicana promastigotes of the Δlmxgt1-3 hexose transporter null mutant strain expressing either PfHT or GLUT1 from an episomal expression vector [17]. Parasites (1x10^7) were resuspended in 100 μL phosphate buffered saline, pH 7.4. Prior to uptake, parasites were pre-incubated for 5 min with inhibitor, and uptake was initiated by adding 100 μL of 200 μM [^3H] D-glucose diluted to 4.0 μCi/mL. Uptake was terminated, typically after 1 min, by centrifuging the parasites through a layer of dibutyl phthalate, as described. Control uptake assays employing [^3H] hypoxanthine, [^3H] uridine, and [^3H] L-proline were performed similarly. Analysis of kinetic data was performed using Graph Pad Prism 4.0b software (Graph Pad).

P. falciparum strain 3D7 = assay: Proliferation of intraerythrocytic P. falciparum 3D7 (SYBR Green, 72 h); type: cell-based, Plasmodium falciparum; conditions: chloroquine sensitive strain 3D7, 72 h, read-out: Pf 3D7 EC50
Experimental: (§2) Two P. falciparum strains were used in this study and were provided by the MR4 Unit of the American Type Culture Collection (ATCC, Manassas, VA). Those two strains were the chloroquine sensitive strain 3D7 and the K1 strain that is resistant to chloroquine, pyrimethamine, and sulfadoxine.
(§3) Asynchronous parasites were maintained in culture based on the method of Trager. Parasites were grown in presence of fresh group O-positive erythrocytes (Key Biologics, LLC) in Petri dishes at a hematocrit of 4–6% in RPMI based media (RPMI 1640 supplemented with 0.5% AlbuMAX II, 25 mM HEPES, 25 mM NaHCO3 (pH 7.3), 100 μg/mL hypoxanthine, and 5 μg/mL gentamycin). Cultures were incubated at 37°C in a gas mixture of 90% N2, 5% O2, 5% CO2. For EC50 determinations, 20 μL of RPMI 1640 with 5 μg/mL gentamycin were dispensed per well in an assay plate (Corning 384-well microtiter plate, clear bottom, tissue culture treated, catalog no. 8807BC). 40 nL of compound, previously serially diluted in a separate 384-well white polypropylene plate (Corning, catalog no. 8748BC), was dispensed to the assay plate by hydrodynamic pin transfer (FP1S50H, V&P Scientific Pin Head) and then 20 μL of a synchronized culture suspension (1% rings, 4% hematocrit) was added to each well, thus making a final hematocrit and parasitemia of 2% and 1%, respectively. Assay plates were incubated for 72 h, and the parasitemia was determined by a method previously described: Briefly, 10 μL of the assay solution in PBS (10X SYBR Green I, 0.5% v/v triton X-100, 0.5 mg/mL saponin) was added to each well. Assay plates were shaken for 1 min, incubated in the dark for 90 min, and read with an Envision (Perkin Elmer) spectrophotometer at Ex/Em of 485 nm/535 nm. EC50s were calculated with a custom program (RISE, Robust Investigation of Screening Experiments) using a four-parameter logistic equation.

human GLUT1 = biological target: T1, human GLUT1 (Homo sapiens, UniProt P11166); assay: Uptake of [3H] D-glucose by L. mexicana Δlmxgt1-3 null mutants expressing GLUT1; type: cell-based; set-up: expressed in transfected cells; host or cells: Leishmania mexicana promastigotes, Δlmxgt1-3 hexose transporter null mutant; conditions: inhibition of uptake of 100 μM [3H] D-glucose, 1 min uptake assay
T1 sequence (P11166 1-492): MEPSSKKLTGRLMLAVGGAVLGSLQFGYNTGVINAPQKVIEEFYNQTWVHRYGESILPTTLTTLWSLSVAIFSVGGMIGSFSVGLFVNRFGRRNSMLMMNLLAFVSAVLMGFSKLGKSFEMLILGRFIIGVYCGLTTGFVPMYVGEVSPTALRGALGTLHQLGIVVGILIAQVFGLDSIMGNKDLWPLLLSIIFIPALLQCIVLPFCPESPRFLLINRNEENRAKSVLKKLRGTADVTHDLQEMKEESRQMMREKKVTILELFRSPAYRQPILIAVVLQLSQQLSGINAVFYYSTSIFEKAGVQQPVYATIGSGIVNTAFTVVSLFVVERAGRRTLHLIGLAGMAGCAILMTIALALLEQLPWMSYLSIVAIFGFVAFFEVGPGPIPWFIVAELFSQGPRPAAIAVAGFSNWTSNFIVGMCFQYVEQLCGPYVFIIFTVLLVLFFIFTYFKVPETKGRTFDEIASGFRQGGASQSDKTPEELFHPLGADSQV
Experimental: as §1

P. falciparum strain K1 = assay: Proliferation of intraerythrocytic P. falciparum K1 (SYBR Green, 72 h); type: cell-based, Plasmodium falciparum; conditions: multi-drug resistant strain K1, 72 h, read-out: Pf K1 EC50
Experimental: as §2, §3

[1] = Kic (Ki for binding of inhibitor to free transporter), from plot of Km/Vmax versus [I]
[2] = Kiu (Ki for binding of inhibitor to substrate-bound transporter), from plot of 1/Vmax versus [I]
[3] = Plasmodium falciparum, 3D7, 72 h
[4] = Plasmodium falciparum, K1, 72 h

Chain of PfHT (Q7KWJ5 whole entry): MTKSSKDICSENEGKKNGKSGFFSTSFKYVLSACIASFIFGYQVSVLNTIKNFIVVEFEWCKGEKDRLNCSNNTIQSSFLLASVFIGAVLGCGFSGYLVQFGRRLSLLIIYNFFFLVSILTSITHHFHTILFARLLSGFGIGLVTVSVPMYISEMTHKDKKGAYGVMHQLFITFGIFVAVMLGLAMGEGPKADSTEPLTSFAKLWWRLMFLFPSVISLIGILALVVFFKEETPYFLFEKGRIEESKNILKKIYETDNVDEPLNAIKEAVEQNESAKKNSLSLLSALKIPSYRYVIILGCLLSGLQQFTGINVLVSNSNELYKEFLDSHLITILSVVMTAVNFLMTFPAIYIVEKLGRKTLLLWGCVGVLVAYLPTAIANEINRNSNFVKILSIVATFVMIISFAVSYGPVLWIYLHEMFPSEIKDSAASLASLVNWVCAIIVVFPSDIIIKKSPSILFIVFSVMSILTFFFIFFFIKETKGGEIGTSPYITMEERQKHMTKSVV

Structure (SMILES)	solubility at 18 h (Solubility assay)	IC50 (PfHT)	selective inhibition of PfHT versus GLUT1 (PfHT)	Ki (PfHT; [1])	Ki (PfHT; [2])	Vmax (PfHT; [I] 50 nM)	Vmax (PfHT; [I] 100 nM)	mode of inhibition of glucose uptake through PfHT (PfHT)	SIglucose GLUT1/PfHT (Specificity Index, IC50 for GLUT1/IC50 for PfHT) (PfHT)	EC50 (P. falciparum strain 3D7; [3])	EC50 (P. falciparum strain 3D7)	IC50 (human GLUT1)	EC50 (P. falciparum strain K1; [4])	EC50 (P. falciparum strain K1)	IC50 (PfHT; read-out: IC50 PfHT, inhibition of uptake of 100 μM [3H] D-glucose, 1 min uptake assay)	lower affinity for PfHT than Compound 1 (PfHT)	Vmax (PfHT; [I] 600 nM)	Vmax (PfHT; [I] 1000 nM)
COc1cc(Nc2ccc3cc(S(=O)(=O)N4CCCCC4C)ccc3n2)cc(OC)c1OC (stereo not shown) [Compound 1]	0.5 ± 0.4 µM (≈ 0.236 µg/mL)	0.039 µM	82 fold	0.033 µM	0.023 µM	280 ± 15 pmol per 10^7 cells per min	131 ± 4 pmol per 10^7 cells per min	non-competitive inhibitors	82	~1 µM	1.4 µM	3.2 µM and > 3 µM	~1 µM	0.97 µM				
CC1CCCCN1S(=O)(=O)c1ccc2nc(Nc3ccccc3)ccc2c1 (stereo not shown) [Compound 10]	0.4 µM (≈ 0.153 µg/mL)									> 10 µM	15 µM	> 10 µM	> 10 µM	12 µM	> 10 µM			
CC1CCCCN1S(=O)(=O)c1ccc2nc(Nc3ccc(C#N)cc3)ccc2c1 (stereo not shown) [Compound 12]		2.7 µM							0.92	> 10 µM	> 16 µM	2.5 µM	> 10 µM	> 16 µM				
CC1CCCCN1S(=O)(=O)c1ccc2nc(Nc3cccc(C#N)c3)ccc2c1 (stereo not shown) [Compound 13]	0.9 ± 1.2 µM (≈ 0.366 µg/mL)	0.32 µM	94 fold	0.33 µM	0.26 µM			non-competitive inhibitors	94	> 10 µM	11 µM	30 µM	> 10 µM	7.3 µM		8 fold	245 ± 67 pmol per 10^7 cells per min	93 ± 53 pmol per 10^7 cells per min
